{"source": "patent EP2402327B1", "about": "“Acetamide compounds as glucokinase activators, their process and medicinal applications” (Impetis Biosciences Ltd., priority 2010, dated 2012)", "key": {"[1]": {"biological_target": "T1, purified human recombinant GK (Homo sapiens, UniProt P35557)", "T1 sequence (P35557 1-465)": "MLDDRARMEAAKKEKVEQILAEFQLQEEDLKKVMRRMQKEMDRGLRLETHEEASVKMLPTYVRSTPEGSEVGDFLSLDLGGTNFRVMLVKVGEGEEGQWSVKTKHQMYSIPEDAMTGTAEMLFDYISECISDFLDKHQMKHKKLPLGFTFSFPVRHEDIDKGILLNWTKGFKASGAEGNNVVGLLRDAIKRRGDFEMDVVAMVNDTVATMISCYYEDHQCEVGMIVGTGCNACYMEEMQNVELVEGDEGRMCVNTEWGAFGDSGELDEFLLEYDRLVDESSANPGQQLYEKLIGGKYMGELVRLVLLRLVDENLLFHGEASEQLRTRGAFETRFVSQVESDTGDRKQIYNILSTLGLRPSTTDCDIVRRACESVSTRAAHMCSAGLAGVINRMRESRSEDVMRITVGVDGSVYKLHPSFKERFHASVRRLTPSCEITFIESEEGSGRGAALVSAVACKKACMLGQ", "assay": "Glucokinase activity assay (coupled enzymatic assay with G6PD, NADH absorbance at 340 nm)", "type": "biochemical", "conditions": "for EC50: EC50 of % change in S0.5 (% ΔS0.5) of glucokinase for glucose, sigmoidal fit; for Emax: Emax of % change in S0.5 (% ΔS0.5), vehicle control S0.5 = 0%, 0 mM glucose = 100%", "text": "The glucokinase (GK) assay is a coupled enzymatic assay. GK catalyzes the first step of glycolysis, the conversion of glucose to glucose-6-phosphate (G6P) in the presence of ATP. G6P in turn is converted by glucose-6-phosphate dehydrogenase (G6PD) to 6-phosphogluconate, a process that requires NAD, resulting in NADH formation. Since the GK-catalyzed step is the rate-limiting step of this coupled enzymatic process, the rate of accumulation of 6-phosphogluconate and NADH is directly proportional to the rate of glucose phosphorylation by GK. The rate of the GK-catalyzed reaction can therefore be measured by monitoring the increase in NADH absorbance at 340 nm.\nThe assay is carried out according to the protocol outlined in Hariharan et al (1997), Diabetes 46: 11-16. Briefly, the test compounds are incubated in a reaction mix containing 25 mM HEPES (pH 7.2), 10 mM MgCl2, 100 mM KCl, 5 mM ATP, 2 mM DTT, 0.5 mM NAD, 1 U/ml Leuconostoc mesenteroides G6PD, 0.3 U/ml of purified human recombinant GK, and different concentrations of glucose. Enzymatic activity is calculated from the initial reaction velocity, measured from the change in NADH absorbance as a function of time.\nCompounds described in formula (I), in concentration ranges from 1.0 nM to 500 µM, are tested in the purified human recombinant glucokinase assay described above.\nA compound is considered to be a glucokinase activator if it, in its testable range of concentrations, yields a higher rate of glucose phosphorylation than in its absence at a particular glucose concentration, for example at 5 mM glucose.\nCompounds of general formula (I) are tested in the in vitro GK enzymatic assay to monitor dose-dependent effect on glucokinase activation (in kinetic mode), as described above, at various glucose concentrations. The S0.5 of glucokinase for glucose at different concentration of each compound of interest is calculated from the following modified version of the Michaelis-Menten equation, V = Vmax [S]^n/(S0.5^n + [S]^n), where [S] is the glucose concentration and n is the Hill coefficient (taken as 1.7 to account for the sigmoidal kinetics of glucokinase with respect to glucose). The S0.5 is plotted against the log of the compound concentration. The change in the S0.5 of glucokinase (ΔS0.5) for glucose is calculated by subtracting the S0.5 at each concentration of the compound from the S0.5 in the vehicle control. The ΔS0.5 is then normalized to a percent scale, where the S0.5 in the vehicle control is set to 0% and 0 mM glucose is set to 100%. The % ΔS0.5 is then plotted against the log of the compound concentration. The EC50 and Emax of % change in S0.5 is obtained from the sigmoidal fit of the data. Detailed protocol has been described in our copending application no. 409/CHE/2007 which is incorporated herein by reference. Characterization data of some representative glucokinase activators of the present disclosure, which are illustrative but not limiting, are given in table I below.\nThe glucokinase activation data of some representative compounds of the present disclosure, which are illustrative but not to be construed as limiting the scope or spirit of the disclosure, are given in the table I below. Table I: EC50 and Emax (with respect to % ΔS0.5) of GK activators"}, "[2]": {"test_system": "primary rat hepatocytes", "assay": "Measurement of glycogen synthesis in primary rat hepatocytes", "type": "cell-based, male Wistar rats", "conditions": "10 µM compound, 10 mM glucose, 3 hours at 37°C, fold increase over DMSO control", "method": "Primary hepatocytes are collected from male Wistar rats, and tested for viability by trypan blue exclusion. Primary hepatocytes cultures with viability greater than 95% are selected for the glycogen synthesis assay. The cells are seeded in a 48-well plate at a density of 200,000 cells/well in 250 µl Minimal Essential Medium (MEM) containing 10% foetal calf serum (FCS) and 1.7 µM insulin, and incubated for 4 hours at 37°C to allow attachment. The medium is replaced with fresh MEM containing 10% FCS, 1.7 µM insulin and 10 nM dexamethasone, and the cells are incubated for 16 hours at 37°C. The medium is then replaced with fresh MEM (serum-free) containing 2 µCi/ml of D-[U^14C]-Glucose along with 10 µM of the compound in a final DMSO concentration of 0.1%. The final glucose concentration is brought to 10 mM by the addition of D-Glucose (MEM already contains 5 mM glucose). The cells are incubated for 3 hours at 37°C. The cells are washed twice with 150 mM NaCl, lysed with 0.1 N NaOH, and the lysate precipitated with 8% w/v trichloroacetic acid (TCA) and 1 mg/well unlabeled glycogen as carrier. Cell debris is pelleted by centrifugation, the supernatant is removed, and the glycogen is precipitated with 63% ethanol. After another round of centrifugation, the supernatant is removed, and the pellet containing the precipitated glycogen is dried overnight. De novo synthesized glycogen is estimated in a scintillation counter (MicroBeta Trilux, Perkin Elmer), and expressed as fold increase over DMSO control.\nThe protocol for the glycogen assay is based on the method described in \"Biochem J. 1990 Feb 15; 266(1): 91-102\" with a few minor modifications. The protocol for isolation of primary rat hepatocytes is based on the method described in \"Methods in Enzymology, Vol. III. pp 34-50. Ed. by S.P. Colowick and N.O. Kaplan. New York, Academic Press, 1957\" with a few minor modifications.\nCompounds described in formula (I), in concentration ranges from 1.0 nM to 500 µM, are tested in glycogen synthesis assay described above. […]"}, "[3]": {"conditions": "cited from earlier work"}}, "data": [{"molecule": "O=C(O)c1ccc(Oc2cnc(NC(=O)C(O[C@@H]3CCOC3)c3ccc(S(=O)(=O)C4CC4)cc3)s2)cc1", "note": "(single isomer, unassigned) [Example D6A]", "values": [{"measurement": "EC50", "setting": "[1]", "result": 22, "unit": "nM"}, {"measurement": "Emax", "setting": "[1]", "result": 88, "unit": "%"}, {"measurement": "Fold increase in glycogen synthesis at 10 µM", "setting": "[2]", "result": 11, "unit": "fold"}]}, {"molecule": "O=C(O)c1ccc(Oc2cnc(NC(=O)C(OC3CCOCC3)c3ccc(S(=O)(=O)C4CC4)cc3)s2)cc1", "note": "(single isomer, unassigned; (+)) [Example D4A, (+) 4-{2-[2-(4-Cyclopropanesulfonylphenyl)-2-(tetrahydro-pyran-4-yloxy)-acetylamino]-thiazol-5-yloxy}-benzoic acid]", "values": [{"measurement": "EC50", "setting": "[1]", "result": 69, "unit": "nM"}, {"measurement": "Emax", "setting": "[1]", "result": 92, "unit": "%"}]}, {"molecule": "COc1ccc2nc(NC(=O)C(OC3CCOCC3)c3ccc(S(=O)(=O)C4CC4)cc3)sc2n1", "note": "(single isomer, unassigned; (+)) [Example D9A, (+)2-(4-Cyclopropanesulfonyl-phenyl)-N -(5-methoxy-thiazolo[5,4-b]pyridin-2-yl)-2-(tetrahydro-pyran-4-yloxy)-Acetamide]", "values": [{"measurement": "EC50", "setting": "[1]", "result": 68, "unit": "nM"}, {"measurement": "Emax", "setting": "[1]", "result": 95, "unit": "%"}]}, {"molecule": "CCOc1ccc2nc(NC(=O)C(OC3CCOCC3)c3ccc(S(=O)(=O)C4CC4)cc3)sc2n1", "note": "(single isomer, unassigned; (+)) [Example D10A, (+)2-(4-Cyclopropanesulfonyl-phenyl)-N -(5-ethoxy-thiazolo[5,4-b]pyridin-2-yl)-2-(tetrahydro-pyran-4-yloxy)-a Cetamide]", "values": [{"measurement": "EC50", "setting": "[1]", "result": 54, "unit": "nM"}, {"measurement": "Emax", "setting": "[1]", "result": 92, "unit": "%"}]}, {"molecule": "O=C(O)c1ccc(Oc2cnc(NC(=O)C(Oc3ccc(F)cc3F)c3ccc(S(=O)(=O)C4CC4)cc3)s2)cc1", "note": "(single isomer, unassigned; (+)) [Example D11A, (+)4-{2-[2-(4-Cyclopropanesulfonylphenyl)-2-(2,4-difluoro-phenoxy)-acetylamino]-thiazol-5-yloxy}-benzoic acid]", "values": [{"measurement": "EC50", "setting": "[1]", "result": 34, "unit": "nM"}, {"measurement": "Emax", "setting": "[1]", "result": 95, "unit": "%"}, {"measurement": "Fold increase in glycogen synthesis at 10 µM", "setting": "[2]", "result": 15.5, "unit": "fold"}]}, {"molecule": "O=C(Nc1nc2cccnc2s1)C(Oc1ccc(F)cc1F)c1ccc(S(=O)(=O)N2CCCCC2)cc1", "note": "(single isomer, unassigned; (-)) [Example D1A, (-)2-(2,4-Difluoro-phenoxy)-2-[4-(piperidine-1-sulfonyl)-phenyl]-N-thiazo lo[5,4-b]pyridin-2-yl-acetamide]", "values": [{"measurement": "EC50", "setting": "[1]", "result": 84, "unit": "nM"}, {"measurement": "Emax", "setting": "[1]", "result": 85, "unit": "%"}]}, {"molecule": "O=C(O)c1ccc(Oc2cnc(NC(=O)C(OC3CCOCC3)c3ccc(S(=O)(=O)C4CC4)cc3)s2)c(F)c1", "note": "(stereo not shown) [Example B34, 4-{2-[2-(4-Cyclopropanesulfonyl-phenyl)-2-(tetrahydropyran-4-yloxy)-acetylamino]-thiazol-5-yloxy}-3-fluorobenzoic acid]", "values": [{"measurement": "EC50", "setting": "[1]", "result": 45, "unit": "nM"}, {"measurement": "Emax", "setting": "[1]", "result": 91, "unit": "%"}]}, {"molecule": "O=C(O)c1ccc2nc(NC(=O)C(OC3CCOCC3)c3ccc(S(=O)(=O)C4CC4)cc3)sc2c1", "note": "(stereo not shown) [Example B41, 2-[2-(4-Cyclopropanesulfonyl-phenyl)-2-(tetrahydro-pyran-4-yloxy)-acetylamino]-benzothiazole-6-carboxylic acid]", "values": [{"measurement": "EC50", "setting": "[1]", "result": 100, "unit": "nM"}, {"measurement": "Emax", "setting": "[1]", "result": 75, "unit": "%"}]}, {"molecule": "NC(=O)c1cccc(Oc2cnc(NC(=O)C(Oc3ccc(F)cc3F)c3ccc(S(=O)(=O)C4CC4)cc3)s2)c1", "note": "(stereo not shown) [Example C6, 3-{2-[2-(4-Cyclopropanesulfonyl-phenyl)-2-(2,4-difluorophenoxy)-acetylamino]-thiazol-5-yloxy}-benzamide]", "values": [{"measurement": "Fold increase in glycogen synthesis at 10 µM", "setting": "[2]", "result": 13.5, "unit": "fold"}]}, {"molecule": "O=C(Nc1ncc(Oc2ccc(-c3nn[nH]n3)cc2)s1)C(OC1CCOCC1)c1ccc(S(=O)(=O)C2CC2)cc1", "note": "(stereo not shown) [Example E1, 2-(4-Cyclopropanesulfonyl-phenyl)-2-(tetrahydro-pyran-4-yloxy)-N-{5-[4-(2H-tetrazol-5-yl)-phenoxy]-thiazol-2-yl}-acetamide]", "values": [{"measurement": "EC50", "setting": "[1]", "result": 99, "unit": "nM"}, {"measurement": "Emax", "setting": "[1]", "result": 88, "unit": "%"}]}, {"molecule": "O=C(Nc1ncc(Oc2ccc(CO)cc2)s1)C(OC1CCOCC1)c1ccc(S(=O)(=O)C2CC2)cc1", "note": "(stereo not shown) [Example F1, 2-(4-Cyclopropanesulfonyl-phenyl)-N-[5-(4-hydroxymethyl-phenoxy)-thiazol-2-yl]-2-(tetrahydro-pyran-4-yloxy)-acetamide]", "values": [{"measurement": "EC50", "setting": "[1]", "result": 100, "unit": "nM"}, {"measurement": "Emax", "setting": "[1]", "result": 91, "unit": "%"}]}, {"molecule": "O=C(Nc1ncc(F)s1)[C@H](CC1CCOCC1)c1ccc(S(=O)(=O)C2CC2)cc1", "note": "[PSN-GK1]", "values": [{"measurement": "hypoglycemic potential", "setting": "[3]; at higher dose, Fyfe, M. C. T. (2007) Diabetologia, 50: 1277-1287", "result": "hypoglycemic potential is seen"}]}, {"molecule": "Ro-28-1675", "values": [{"measurement": "hypoglycemia", "setting": "[3]; animal efficacy models, Kamata, K. et al (2004) Structure 12: 429-438", "result": "cause hypoglycemia"}]}]}
